Source: patent US7807673B2, “2-pyrimidinyl pyrazolopyridine ErbB kinase inhibitors” (GlaxoSmithKline LLC, priority 2005, dated 2010)

Key:
Colo205 tumor cell lines = test: Methylene blue growth inhibition assay (cellular Method A); assay type: cell-based; details: Homo sapiens, COLO 205, 72 h, Table 3, Method A methylene blue, 3 days
Method: (§1) Human breast (BT474) and head and neck (HN5) were cultured in low glucose DMEM (Life Technologies 12320-032) containing 10% fetal bovine serum (FBS). Human colon tumor cells (Colo205) were cultured in DMEM (Invitrogen, 10564) containing 10% FBS. The SV40 transformed human mammary epithelial cell line to HB4a was transfected with either human H-ras cDNA (HB4a r4.2) or the human c-ErbB2 cDNA (HB4a c5.2). The HB4a clones were cultured in RPMI containing 10% FBS, insulin ([…]), hydrocortisone ([…]), supplemented with the selection agent hygromycin B ([…]). All lines were grown in a humidified incubator at 37° C. in 95% air, 5% CO2. Cells were harvested using trypsin/EDTA, counted using a haemocytometer, and plated in 100 microliters of the appropriate media, at the following densities, in a 96-well tissue culture plate (Falcon 3075): BT474 10,000 cells/well, HN5 3,000 cells/well. The next day, compounds were diluted in DMEM containing […] gentamicin, at twice the final required concentration, from 10 mM stock solutions in DMSO. 100 microliters/well of these dilutions were added to the 100 microliters of media currently on the cell plates. Medium containing 0.6% DMSO was added to control wells. Compounds diluted in DMEM were added to all cell lines. The final concentration of DMSO in all wells was 0.3%. Cells were returned to the incubator (37° C., […]) for 3 days. Medium was then removed by aspiration. Cell biomass was estimated by staining cells with 90 microliters per well methylene blue (Sigma M9140, 0.5% in 1:1 ethanol:water), and incubation at rt for at least 30 minutes. Stain was removed, and the plates rinsed by immersion in deionized water and air-dried. To release stain from the cells 100 microliters of solubilization solution was added (1% N-lauroyl sarcosine, Sodium salt, Sigma L5125, in PBS), and plates were shaken gently for about 30 minutes. Optical density at 620 nm was measured on a microplate reader. Percent inhibition of cell growth was calculated relative to vehicle treated control wells. Concentration of compound that inhibits 50% of control cell growth (IC50) was interpolated using nonlinear regression (Levenberg-Marquardt) and the equation, y=Vmax*(1−(x/(K+x)))+Y2, where “K” was equal to the IC50. Method B: Celltiter Glo® Growth Inhibition Assays

[1] = test system: BT474 and HN5 tumor cell lines; test: as above; assay type: cell-based; details: Homo sapiens, BT-474 and HN5, 72 h; Table 2, Method A methylene blue, 3 days; class over BT474 and HN5;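 note: class counts the more potent of the two cell lines (BT474 or HN5)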
Method: as §1

ErbB2 or EGFR = target: T1, ErbB2 or EGFR; test: ErbB enzyme substrate phosphorylation assay (HTRF), Method A; assay type: biochemical; details: Table 1, enzyme Method A: substrate mix added first, reaction started with enzyme mix; class over ErbB2 or EGFR
T1 construct: enzymes purified from a baculovirus expression system
Method: Compounds of the present invention were tested for EGFR, ErbB-2, and ErbB-4 protein tyrosine kinase inhibitory activity in substrate phosphorylation assays using enzymes purified from a baculovirus expression system. Reagent production was conducted essentially as described in Brignola, P. S., et al, (2002) J. Biol. Chem. 277(2): 1576-1585.
The method measures the ability of the isolated enzyme to catalyse the transfer of the gamma-phosphate from ATP onto the tyrosine residue of a biotinylated synthetic peptide referenced “Peptide C” in Brignola, P. S., et al, (2002) J. Biol. Chem. 277(2):1576-1585. The extent of tyrosine phosphorylation was measured using an anti-phosphotyrosine antibody, and quantified by homogenous time-resolved fluorescence (HTRF).
Reactions were performed in black 384-well polystyrene flat-bottom plates in a final volume of 20 μl. Assays were performed by adding 10 μl of each of the following solutions, substrate Mix and enzyme mix: The Substrate mix contained 100 mM 3-[N-morpholino]propanesulfonic acid (MOPS) (pH 7.5), 2 mM MnCl2, 20 μM ATP, 0.01% Tween-20, 0.1 mg/mL (BSA), 0.8 uM peptide substrate, and 1 mM dithiothreitol. The enzyme mix contained 100 mM MOPS (pH7.5); 0.01% Tween-20; 0.1 mg/mL BSA, and either 0.8 nM EGFR, 10 nM ErbB2, or 1 nM ErbB4
During the course of these studies, two separate methods have been used to measure the potency of compounds. In Method A, the substrate mix was added to the compound plates first, then the reaction was started by adding the enzyme mix. In Method B, the enzyme mix was added to the compound plates and the plates were incubated at 20° C. for 1 hour. The reactions were then started by adding the substrate mix.
After initiating the reaction with either method describe above, the reactions were allowed to proceed for 90 minutes at 20° C. The reactions were then terminated by the addition of 20 μl 100 mM EDTA to each well. 40 μl/well of HTRF detection mix were added to the assay plates. The final concentrations of the detection reagents were: 100 mM HEPES (pH7.5), 0.1 mg/mL BSA, 15 nM streptavidin-labeled allophycocyanin (PerkinElmer), and 1 nM europium-labeled anti-phosphotyrosine antibody (PerkinElmer). Assay plates were left unsealed and were counted in a Wallac Multilabel Counter 1420 (PerkinElmer). […]
The data for dose responses were plotted as % Inhibition calculated with the data reduction formula 100*(1−(U1−C2)/(C1−C2)) versus concentration of compound where U is the unknown value, C1 is the average control value obtained for 4.76% DMSO, and C2 is the average control value obtained for 0.035 M EDTA. […] The results for each compound were recorded as pIC50s, calculated as follows: pIC50=−Log 10(K)

SMILES	IC50 (Colo205 tumor cell lines) [nM]	IC50 [1] [nM]	Activity (Method) (ErbB2 or EGFR)
O=C(Cc1ccccc1)Nc1cccc(-c2nn3ccccc3c2-c2ccnc(Nc3ccccc3)n2)c1 [Example 3, 2-Phenyl-N-(3-{3-[2-(phenylamino)-4-pyrimidinyl]pyrazolo[1,5-a]pyridin-2-yl}phenyl)acetamide]	> 1000	> 1000	++ (A) (at least one pIC50 measurement greater than 6 against either ErbB2 or EGFR but no measurement greater than pIC50 of 7)
O=C(Cc1cccs1)Nc1cccc(-c2nn3ccccc3c2-c2ccnc(Nc3ccccc3)n2)c1 [Example 4, N-(3-{3-[2-(Phenylamino)-4-pyrimidinyl]pyrazolo[1,5-a]pyridin-2-yl}phenyl)-2-(2-thienyl)acetamide]			++ (A) (at least one pIC50 measurement greater than 6 against either ErbB2 or EGFR but no measurement greater than pIC50 of 7)
O=C(Cc1cccc(Cl)c1)Nc1cccc(-c2nn3ccccc3c2-c2ccnc(Nc3ccccc3)n2)c1 [Example 5, 2-(3-Chlorophenyl)-N-(3-{3-[2-(phenylamino)-4-pyrimidinyl]pyrazolo-[1,5-a]pyridin-2-yl}phenyl)acetamide]			+ (A) (no pIC50 measurement greater than 6 against either ErbB2 or EGFR)
O=C(Cc1cc(F)ccc1F)Nc1cccc(-c2nn3ccccc3c2-c2ccnc(Nc3ccccc3)n2)c1 [Example 6, 2-(2,5-Difluorophenyl)-N-(3-{3-[2-(phenylamino)-4-pyrimidinyl]pyrazolo[1,5-a]pyridin-2-yl}phenyl)acetamide]			++ (A) (at least one pIC50 measurement greater than 6 against either ErbB2 or EGFR but no measurement greater than pIC50 of 7)
